From US20030032153A1, “Novel (R)-2,3-butanediol dehydrogenase, methods for producing same, and methods for producing optically active alcohol using the dehydrogenase” (priority 2001, published 2003)

Tests used:
[1] = system: (R)-2,3-butanediol dehydrogenase; assay: Substrate specificity, reduction reaction of the enzyme obtained in Example 1 with ketones; assay type: biochemical, Kluyveromyces lactis; details: coenzyme NADH; reduction of 4-hydroxy-2-butanone taken as 100
Method: (§1) A reaction solution containing 50 mM potassium phosphate buffer (pH 6.5), 0.2 mM NADH, 20 mM 4-hydroxy-2-butanone, and the enzyme is reacted at 30° C., and the decrease in absorbance at 340 nm due to the decrease in NADH is measured. 1 U is defined as the amount of enzyme that catalyzes a decrease of 1 μmol NADH in one minute.
The enzyme obtained in Example 1 was reacted with various alcohols and ketones, and the activity of oxidation and reduction is shown in Table 2. Herein, the relative activity is indicated taking the oxidation of (R)-1,3-butanediol and reduction of 4-hydroxy-2-butanone as 100.

[2] = system: (R)-2,3-butanediol dehydrogenase; assay: Substrate specificity, oxidation reaction of the enzyme obtained in Example 1 with alcohols; assay type: biochemical, Kluyveromyces lactis; details: for Relative Activity, Oxidation Reaction: coenzyme NAD+, oxidation of (R)-1,3-butanediol taken as 100
Method: (§2) A reaction solution containing 50 mM potassium phosphate buffer (pH 6.5), 2.5 mM NAD^+, 20 mM (R)-1,3-butanediol, and the enzyme is reacted at 30° C., and the increase in absorbance at 340 nm due to the increase of NADH is measured. 1 U is defined as the amount of enzyme that catalyzes an increase of 1 μmol NADH in one minute. Further, the quantity of the protein is determined by the pigment bonding method using protein assay kit (Biorad).
Herein, the relative activity is indicated taking the oxidation of (R)-1,3-butanediol and reduction of 4-hydroxy-2-butanone as 100.

[3] = system: (R)-2,3-butanediol dehydrogenase; assay: Stereoselectivity, oxidation of alcohol isomers by the enzyme obtained in Example 1; assay type: biochemical, Kluyveromyces lactis; details: coenzyme NAD+; higher oxidation activity between the two isomers taken as 100
Method: as §2
The enzyme obtained in Example 1 was reacted with 1,3-butanediol, 1,2-propanediol, 2,3-butanediol, 2-butanol, and 3-chloro-1,2-propanediol, and the activities are shown in Table 3. Herein, the relative activity is indicated, taking the higher oxidation activity between the two isomers as 100. The stereoselectivity for 2,3-butanediol, and 1,2-propandiol of the (R)-2,3-butanediol dehydrogenase according to the present invention was extremely high.

[4] = target: T1, Glycerol dehydrogenase produced from Escherichia coli W-1485 (Escherichia coli, UniProt P0A9S5); details: J. Biol. Chem. 259: 2124-2129, 1984; NAD+ reduction; cited from earlier work
T1 construct: host or cells: Escherichia coli W-1485
T1 sequence (P0A9S5 1-367): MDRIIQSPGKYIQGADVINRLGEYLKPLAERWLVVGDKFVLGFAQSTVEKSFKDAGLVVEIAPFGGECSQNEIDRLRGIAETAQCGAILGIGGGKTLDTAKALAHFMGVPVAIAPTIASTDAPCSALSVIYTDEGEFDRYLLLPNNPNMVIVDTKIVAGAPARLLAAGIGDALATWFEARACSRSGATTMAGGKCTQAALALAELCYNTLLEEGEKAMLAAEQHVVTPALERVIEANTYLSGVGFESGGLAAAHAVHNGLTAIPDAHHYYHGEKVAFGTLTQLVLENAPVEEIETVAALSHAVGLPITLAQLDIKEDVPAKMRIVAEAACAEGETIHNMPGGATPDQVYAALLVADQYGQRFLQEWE

[5] = system: (R)-2,3-butanediol dehydrogenase; assay: Substrate specificity, reduction reaction of the enzyme obtained in Example 1 with ketones; assay type: biochemical, Kluyveromyces lactis
[6] = Oxidation activity on (R)-1,3-butanediol of the purified enzyme; assay type: biochemical, Kluyveromyces lactis; details: (R)-1,3-butanediol oxidation activity
Method: as §2
The (R)-1,3-butanediol oxidation activity and 4-hydroxy-2-butanone reduction activity of the enzyme obtained in Example 1 was investigated by changing the pH using potassium phosphate buffer solution, sodium acetate buffer solution, and Britton-Robinson wide-range buffer solution. The oxidation activity and the reduction activity are depicted in FIGS. 2 and 3, respectively, wherein the relative activity are indicated taking the maximum activity as 100. The optimum pH was 6.0 for both reactions, oxidation and reduction.
The (R)-1,3-butanediol oxidation activity and 4-hydroxy-2-butanone reduction activity of the enzyme obtained in Example 1 were measured by changing only the temperature of the standard reaction conditions. […] The optimum reaction temperature was 37° C. for both reactions, oxidation and reduction.

[7] = Reduction activity on 4-hydroxy-2-butanone of the purified enzyme; assay type: biochemical, Kluyveromyces lactis; details: 4-hydroxy-2-butanone reduction activity
Method: as §1
Kluyveromyces lactis strain IFO 1267 was cultured in 1.2 liters of YM medium (glucose 20 g/L, yeast extract 3 g/L, malt extract 3 g/L, peptone 5 g/L, pH 6.0) and the cell bodies were prepared by centrifugation. The resulting wet cell bodies were suspended in 50 mM potassium phosphate buffer (pH 8.0), containing 0.02% 2-mercaptoethanol and 2 mM phenylmethane sulfonylfluoride (PMSF), and after homogenizing with Bead Beater (Biospec), the residue of the cell bodies were removed by centrifugation to obtain a cell-free extract. Protamine sulfate was then added to the cell-free extract followed by centrifugation to obtain enucleated supernatant. […]
The (R)-1,3-butanediol oxidation activity and 4-hydroxy-2-butanone reduction activity of the enzyme obtained in Example 1 were measured by changing only the temperature of the standard reaction conditions. […]

With `CCC(=O)CO` [1-Hydroxy-2-butanone] the “Relative Activity, Reduction Reaction” value [1] was 12100.

In the case of `CC(=O)C(C)=O` [2,3-Butanedione], the “Relative Activity, Reduction Reaction” value [1] is reported as 46400.

For `CCC(=O)C(C)=O` [2,3-Pentanedione], the “Relative Activity, Reduction Reaction” value [1] was 51400.

In the case of `CC(=O)CC(C)=O` [2,4-Pentanedione], the “Relative Activity, Reduction Reaction” value [1] is reported as 0.

In the case of `CCC(C)=O` [2-Butanone], the “Relative Activity, Reduction Reaction” value [1] is reported as 31.

In the case of `O=C(CO)c1ccccc1` [2-Hydroxy-acetophenone], the “Relative Activity, Reduction Reaction” value [1] is reported as 360.

In the case of `CCC(=O)CC` [3-Pentanone], the “Relative Activity, Reduction Reaction” value [1] is reported as 100.

For `CCOC(=O)CC(=O)CCl` [4-Chloro-ethyl acetoacetate], the “Relative Activity, Reduction Reaction” value [1] was 0.

With `CC(=O)CCO` [4-Hydroxy-2-butanone] the “Relative Activity, Reduction Reaction” value [1] was 100.

In the case of `C[C@@H](O)[C@@H](C)O` [(2R, 3R)-butanediol, (2R,3R)-2,3-butanediol], the “Relative Activity, Oxidation Reaction” value [2] is listed as 15600, the “Relative Activity (stereoselectivity)” value [3] is listed as 100 and the Vmax [4] is listed as 28.0 U/mg protein.

In the case of `C[C@H](O)[C@H](C)O` [(2S,3S)-2,3-butanediol], the “Relative Activity (stereoselectivity)” value [3] is reported as 1.

For `C[C@@H](O)CO` [(R)-1,2-propanediol], the “Relative Activity, Oxidation Reaction” value [2] was 13800 and the “Relative Activity (stereoselectivity)” value [3] was 100.

With `C[C@@H](O)CCO` [(R)-1,3-butanediol] the “Relative Activity, Oxidation Reaction” value [2] was 100 and the “Relative Activity (stereoselectivity)” value [3] was 100.

For `OC[C@@H](O)CCl` [(R)-3-chloro-1,2-propanediol], the “Relative Activity (stereoselectivity)” value [3] was 29.

In the case of `C[C@H](O)CO` [(S)-1,2-propanediol], the “Relative Activity (stereoselectivity)” value [3] is reported as 1.

For `C[C@H](O)CCO` [(S)-1,3-butanediol], the “Relative Activity (stereoselectivity)” value [3] was 35.

With `OC[C@H](O)CCl` [(S)-3-chloro-1,2-propanediol] the “Relative Activity, Oxidation Reaction” value [2] was 128 and the “Relative Activity (stereoselectivity)” value [3] was 100.

For `CC(=O)C(C)O` (stereo not drawn) [Acetoin], the “Relative Activity, Reduction Reaction” value [1] was 101000.

With `CC(=O)CO` [Acetol] the “Relative Activity, Reduction Reaction” value [1] was 53600.

For `CC(C)=O` [Acetone], the “Relative Activity, Reduction Reaction” value [1] was 63.

With `CC(=O)c1ccccc1` [Acetophenone] the “Relative Activity, Reduction Reaction” value [1] was 36.

In the case of `CCO` [Ethanol], the “Relative Activity, Oxidation Reaction” value [2] is reported as 0.

In the case of `CCOC(=O)CC(C)=O` [Ethyl acetoacetate], the “Relative Activity, Reduction Reaction” value [1] is reported as 0.

In the case of `OCC(O)CO` [Glycerin], the “Relative Activity, Oxidation Reaction” value [2] is reported as 66.

For `CC(C)O` [Isopropyl alcohol], the “Relative Activity, Oxidation Reaction” value [2] was 48.

For `NC(=O)C1=CN([C@@H]2O[C@H](COP(=O)(O)OP(=O)(O)OC[C@H]3O[C@@H](n4cnc5c(N)ncnc54)[C@H](OP(=O)(O)O)[C@@H]3O)[C@@H](O)[C@H]2O)C=CC1` [NADPH, reduced β-nicotinamide adenine dinucleotide phosphate], the “use as a coenzyme in the reduction reaction” value [5] was “substantially unable to use”.

With `NC(=O)c1ccc[n+]([C@@H]2O[C@H](COP(=O)([O-])OP(=O)(O)OC[C@H]3O[C@@H](n4cnc5c(N)ncnc54)[C@H](OP(=O)(O)O)[C@@H]3O)[C@@H](O)[C@H]2O)c1` [NADP^+, β-nicotinamide adenine dinucleotide phosphate] the “use as a coenzyme in the oxidation reaction” value [2] was “substantially unable to use”.

For (R)-2-butanol, the “Relative Activity, Oxidation Reaction” value [2] was 28 and the “Relative Activity (stereoselectivity)” value [3] was 100.

With (S)-2-butanol the “Relative Activity (stereoselectivity)” value [3] was 75.

In the case of n-Butanol, the “Relative Activity, Oxidation Reaction” value [2] is reported as 0.

B1: enzyme obtained in Example 1: NAD+-dependent (R)-2,3-butanediol dehydrogenase purified from Kluyveromyces lactis strain IFO 1267 (SEQ ID NO:2) (protein, listed as Kluyveromyces lactis)
chain: MRALAYFGKQDIRYTKDLEEPVIETDDGIEIEVSWCGICGSDLHEYLDGPIFFPEDGKVHDVSGLGLPQAMGHEMSGIVSKVGPKVTNIKAGDHVVVEATGTCLDHYTWPNAAHAKDAECAACQRGFYNCCAHLGFMGLGVHSGGFAEKVVVSEKHVVKIPNTLPLDVAALVEPISVSWHAVRISKLQKGQSALVLGAGPIGLATILALQGHGASKIVVSEPAEIRRNQAAKLGVETFDPSEHKEDAVNILKKLAPGGEGFDFAYDCSGVKPTFDTGVHATTFRGMYVNIAIWGHKPIDFKPMDVTLQEKFVTGSMCYTIKDFEDVVQALGNGSIAIDKARHLITGRQKIEDGFTKGFDELMNHKEKNIKILLTPNNHGELDATN
In the case of B1, the “optimum pH, oxidation” value [6] is reported as 6.0, the “optimum pH, reduction” value [7] is reported as 6.0 and the specific activity ([7]; after hydroxyapatite column) is reported as “about 1.5 U/mg”.
